Results reported in ChEMBL document CHEMBL1201862, “PubChem BioAssay data set” (2004).
One block for each compound: values may come before it. Active and inactive are the calls of the source.

Columns and labels:
[1] = molecular target: Delta-type opioid receptor (Homo sapiens, UniProt P41143); assay: Counterscreen for agonists of heterodimerization of the mu 1 (OPRM1) and delta 1 (OPRD1) opioid receptors: Luminescence-based cell-based high throughput dose response assay to identify agonists of OPRD1 homodimerization. [Related pubchem assays (depositor defined):AID504326, AID504355, AID504692, AID504904, AID504905]; format: functional
Mu-type opioid receptor = Mu-type opioid receptor (Homo sapiens, UniProt P35372); assay: Counterscreen for agonists of heterodimerization of the mu 1 (OPRM1) and delta 1 (OPRD1) opioid receptors: Luminescence-based cell-based high throughput dose response assay to identify agonists of OPRM1 homodimerization.; format: functional;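 note: U2OS cells expressing OPRM1 and beta-arrestin as split beta-galactosidase partners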
[2] = molecular target: 5-hydroxytryptamine receptor 5A (Homo sapiens, UniProt P47898); assay: Counterscreen for agonists of OPRM1-OPRD1 heterodimerization: luminescence-based cell-based high throughput dose response assay to identify agonists of 5-hydroxytryptamine (serotonin) 5A receptor (HTR5A). [Related pubchem assays (depositor defined):AID504326, AID504355, AID504692, AID504904, AID504905]; format: functional
[3] = molecular target: Carboxy-terminal domain RNA polymerase II polypeptide A small phosphatase 1 (Homo sapiens, UniProt Q9GZU7); assay: CTDSP1 inhibitors, concentration-response, biochemical, absorbance readout, ultra-high-throughput screen actives (AID 540297); format: functional
[4] = NIH-3T3 fibroblast cytotoxicity, dose response, cytotoxicity control, cell-based, fluorescence, Alamar Blue, secondary assay (AID 2327); format: functional;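 note: NIH-3T3 mouse fibroblasts cultured with fluconazole at 8 µg/mL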
[5] = decrease of insulin promoter-GFP reporter – imaging, high-content screening, mouse beta cells (AID 1628); format: functional; settings: MIN6
[6] = MIN6 cell viability loss – mouse insulinoma, cytotoxicity control, dose response (AID 2122); format: functional;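 note: confirmatory high-throughput counterscreen run to flag cytotoxic compounds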
[7] = fluconazole-exposed Candida albicans growth modulators – fluorescence, retest, confirmation (AID 2467); format: functional, cell-based
[8] = Trypanosoma cruzi growth suppression in host cells – NIH3T3 host cells, beta-gal luminescence, confirmation (AID 2044); format: functional, cell-based;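 note: intracellular parasites grown in NIH/3T3 mouse fibroblasts as host cells; luminescent beta-galactosidase reporter signal from transgenic T. cruzi replicating inside host cells; inhibitors lower the luminescence signal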
[9] = NIH3T3 cell viability loss – ATP luminescence, mouse fibroblasts, counter-screen, dose response (AID 2010); format: functional, cell-based;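 note: cells exposed to compound for about 90 hours before reading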
[10] = molecular target: T1, Short transient receptor potential channel 4 (Mus musculus, UniProt Q9QUQ5); assay: calcium entry via TRPC4 opening agents – cell-based, HEK293 TRPC4/mu-opioid, Fluo-4 calcium, dose response (AID 434937); format: functional
T1 sequence (Q9QUQ5 whole entry): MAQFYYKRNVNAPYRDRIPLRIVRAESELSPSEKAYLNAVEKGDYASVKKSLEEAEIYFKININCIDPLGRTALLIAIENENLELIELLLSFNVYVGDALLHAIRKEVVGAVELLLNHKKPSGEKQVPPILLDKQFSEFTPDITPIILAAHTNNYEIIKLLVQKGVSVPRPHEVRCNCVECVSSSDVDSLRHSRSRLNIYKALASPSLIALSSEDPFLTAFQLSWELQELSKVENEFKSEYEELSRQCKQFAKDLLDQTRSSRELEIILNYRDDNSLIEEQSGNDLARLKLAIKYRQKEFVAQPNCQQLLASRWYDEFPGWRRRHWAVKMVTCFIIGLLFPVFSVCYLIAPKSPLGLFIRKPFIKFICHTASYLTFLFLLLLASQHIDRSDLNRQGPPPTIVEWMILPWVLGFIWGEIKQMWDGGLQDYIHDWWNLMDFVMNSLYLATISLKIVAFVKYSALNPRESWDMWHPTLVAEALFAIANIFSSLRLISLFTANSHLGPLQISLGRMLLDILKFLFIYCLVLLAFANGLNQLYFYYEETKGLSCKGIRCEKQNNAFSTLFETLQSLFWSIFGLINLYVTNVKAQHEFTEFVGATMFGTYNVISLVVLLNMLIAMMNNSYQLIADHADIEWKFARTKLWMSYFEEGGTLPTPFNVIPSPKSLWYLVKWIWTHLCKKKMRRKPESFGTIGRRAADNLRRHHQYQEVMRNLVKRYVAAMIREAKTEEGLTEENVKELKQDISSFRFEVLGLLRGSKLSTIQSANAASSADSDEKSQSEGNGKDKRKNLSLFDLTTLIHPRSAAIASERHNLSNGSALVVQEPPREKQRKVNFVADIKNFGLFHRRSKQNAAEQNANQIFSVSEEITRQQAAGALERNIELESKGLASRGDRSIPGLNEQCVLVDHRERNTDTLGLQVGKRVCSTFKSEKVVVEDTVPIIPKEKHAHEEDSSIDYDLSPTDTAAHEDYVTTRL

[11] = molecular target: Voltage-gated inwardly rectifying potassium channel KCNH2 (Homo sapiens, UniProt Q12809); settings: Potency;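 note: confirmatory quantitative high-throughput screen measuring inhibition of hERG channel activity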
Chain of Voltage-gated inwardly rectifying potassium channel KCNH2 (Q12809 whole entry): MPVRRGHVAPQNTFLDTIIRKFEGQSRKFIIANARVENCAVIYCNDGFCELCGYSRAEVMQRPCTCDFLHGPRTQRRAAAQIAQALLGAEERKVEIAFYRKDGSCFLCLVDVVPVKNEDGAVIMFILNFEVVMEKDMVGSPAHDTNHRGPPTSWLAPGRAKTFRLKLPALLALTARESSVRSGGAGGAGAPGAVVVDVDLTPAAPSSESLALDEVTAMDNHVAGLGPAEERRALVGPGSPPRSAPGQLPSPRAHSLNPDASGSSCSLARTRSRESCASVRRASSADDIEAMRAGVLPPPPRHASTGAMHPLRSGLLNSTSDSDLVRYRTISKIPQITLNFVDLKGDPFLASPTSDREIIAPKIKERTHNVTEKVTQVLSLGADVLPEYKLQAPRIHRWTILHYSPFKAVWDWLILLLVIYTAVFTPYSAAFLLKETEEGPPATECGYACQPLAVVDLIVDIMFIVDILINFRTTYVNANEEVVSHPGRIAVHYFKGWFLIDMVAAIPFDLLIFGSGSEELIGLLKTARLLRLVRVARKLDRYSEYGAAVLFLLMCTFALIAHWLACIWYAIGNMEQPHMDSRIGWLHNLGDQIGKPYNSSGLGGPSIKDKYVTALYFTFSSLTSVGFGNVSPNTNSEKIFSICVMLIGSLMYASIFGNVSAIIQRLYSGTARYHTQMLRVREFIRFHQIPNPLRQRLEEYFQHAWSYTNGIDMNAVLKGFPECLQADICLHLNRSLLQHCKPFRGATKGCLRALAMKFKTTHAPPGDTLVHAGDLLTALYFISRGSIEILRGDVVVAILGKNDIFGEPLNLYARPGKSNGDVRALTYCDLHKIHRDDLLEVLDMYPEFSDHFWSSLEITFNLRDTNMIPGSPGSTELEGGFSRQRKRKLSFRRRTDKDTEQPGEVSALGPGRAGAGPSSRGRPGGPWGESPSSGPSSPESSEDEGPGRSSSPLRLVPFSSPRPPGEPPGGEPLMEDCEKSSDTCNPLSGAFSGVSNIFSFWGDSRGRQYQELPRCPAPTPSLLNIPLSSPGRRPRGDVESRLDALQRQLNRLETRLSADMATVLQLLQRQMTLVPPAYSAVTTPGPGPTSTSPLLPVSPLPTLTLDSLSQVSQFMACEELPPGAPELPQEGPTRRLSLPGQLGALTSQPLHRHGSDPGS

Chain of Delta-type opioid receptor (P41143 whole entry): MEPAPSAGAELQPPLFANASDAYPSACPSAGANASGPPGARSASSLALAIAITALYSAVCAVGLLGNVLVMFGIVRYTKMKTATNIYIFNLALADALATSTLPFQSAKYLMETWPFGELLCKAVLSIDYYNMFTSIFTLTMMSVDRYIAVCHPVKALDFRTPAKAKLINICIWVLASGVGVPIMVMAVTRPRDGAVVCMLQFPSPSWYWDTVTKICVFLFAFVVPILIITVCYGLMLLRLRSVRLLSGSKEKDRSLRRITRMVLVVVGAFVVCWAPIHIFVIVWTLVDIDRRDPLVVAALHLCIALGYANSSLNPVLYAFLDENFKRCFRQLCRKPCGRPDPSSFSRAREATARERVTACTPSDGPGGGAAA
Chain of Mu-type opioid receptor (P35372 whole entry): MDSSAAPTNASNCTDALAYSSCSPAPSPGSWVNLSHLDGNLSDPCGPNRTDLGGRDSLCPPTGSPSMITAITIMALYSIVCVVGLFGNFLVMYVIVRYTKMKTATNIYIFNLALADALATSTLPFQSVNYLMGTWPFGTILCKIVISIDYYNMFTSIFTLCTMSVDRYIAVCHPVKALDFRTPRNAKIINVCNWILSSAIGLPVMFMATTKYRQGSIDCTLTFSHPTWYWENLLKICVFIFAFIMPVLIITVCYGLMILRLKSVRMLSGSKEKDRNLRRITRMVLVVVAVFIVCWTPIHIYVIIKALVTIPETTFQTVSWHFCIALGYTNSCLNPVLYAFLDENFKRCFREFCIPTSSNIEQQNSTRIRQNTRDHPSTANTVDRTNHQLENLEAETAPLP
Chain of 5-hydroxytryptamine receptor 5A (P47898 whole entry, the tested form may be a part): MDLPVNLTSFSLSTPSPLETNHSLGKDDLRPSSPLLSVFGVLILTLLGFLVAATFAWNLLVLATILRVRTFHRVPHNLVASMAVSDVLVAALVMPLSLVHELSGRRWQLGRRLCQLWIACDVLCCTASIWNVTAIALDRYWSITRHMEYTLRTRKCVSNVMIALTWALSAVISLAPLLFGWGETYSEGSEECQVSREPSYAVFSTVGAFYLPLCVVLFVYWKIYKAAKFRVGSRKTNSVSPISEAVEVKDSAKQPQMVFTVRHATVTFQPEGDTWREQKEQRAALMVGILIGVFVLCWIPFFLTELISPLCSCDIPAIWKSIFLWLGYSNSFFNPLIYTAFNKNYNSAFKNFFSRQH
Chain of Carboxy-terminal domain RNA polymerase II polypeptide A small phosphatase 1 (Q9GZU7 whole entry, the tested form may be a part): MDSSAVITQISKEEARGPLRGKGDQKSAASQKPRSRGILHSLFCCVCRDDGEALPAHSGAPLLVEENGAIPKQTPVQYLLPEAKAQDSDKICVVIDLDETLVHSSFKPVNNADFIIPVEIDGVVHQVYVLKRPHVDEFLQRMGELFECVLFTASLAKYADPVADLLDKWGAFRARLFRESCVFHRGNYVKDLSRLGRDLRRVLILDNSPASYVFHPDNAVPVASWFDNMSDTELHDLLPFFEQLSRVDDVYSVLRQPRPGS

EC50 [1]: > 92.5 µM (inactive) | EC50 (Mu-type opioid receptor): 14.5 µM (inactive) | EC50 [2]: > 92.5 µM (inactive)
SMILES: COc1ccc(-n2c3c(cc(C(=O)NNc4ccccc4C)c2=O)C(=O)CC(C)(C)C3)cc1

IC50 [3]: 7.9 µM (active)
SMILES: Cc1cnc(C(=O)OCc2nc(O)c3sccc3n2)cn1

SMILES: CCC(C)OC(=O)C[N+](C)(C)CCOC1CC2CCC1(C)C2(C)C (stereo not given)
EC50 [4]: > 150 µM (inconclusive) | IC50 [5]: 0.418 µM (active) | IC50 [6]: < 0.25 µM (active) | EC50 [7]: 4.36 µM (active) | EC50 [8]: 0.341 µM (active) | EC50 [9]: > 60 µM (not active)

EC50 [10]: 0.668 µM (active) | EC50 [1]: > 92.4 µM (inactive) | EC50 (Mu-type opioid receptor): > 92.4 µM (inactive) | EC50 [2]: > 92.4 µM (inactive)
SMILES: OCC1(CC2CCCCO2)CCN(Cc2ccccc2-c2ccco2)CC1 (stereo not given)

SMILES: CCC(C)(C)C(=O)O [DIMEBUTIC ACID]
AC50 [11]: 12.6 µM (inconclusive)
